Measured values published in the NIST ThermoML archive (doi:10.1021/acs.jced.7b00898).
Numbers after ± are expanded uncertainties.

Experiments:
[1] = for mass density / electrical conductivity / viscosity: 100 kPa, Liquid; for mass density: Vibrating tube method; for surface tension liquid-gas: pt plate; for electrical conductivity: Alternating current cell with electrodes; for viscosity: Falling or rolling sphere viscometry
[2] = xn = mol fraction of the nth substance listed; details: 100 kPa, Liquid, Vibrating tube method, x2 = 0

`CC#N` [acetonitrile] gave a mass density ([1]; 288.15 K) of 787.33 ± 1.6 kg/m3, a mass density ([1]; 293.15 K) of 781.96 ± 1.6 kg/m3 and a mass density ([1]; 298.15 K) of 776.61 ± 1.6 kg/m3. For the same compound, the mass density ([1]; 303.15 K) was 771.18 ± 1.6 kg/m3, the mass density ([1]; 308.15 K) was 765.73 ± 1.5 kg/m3 and the mass density ([1]; 313.15 K) was 760.25 ± 1.5 kg/m3. The mass density ([1]; 318.15 K) was 754.72 ± 1.5 kg/m3 and the mass density ([1]; 323.15 K) was 749.16 ± 1.5 kg/m3.

For `CC#N` [acetonitrile] + C[n+]1ccn(CCCC#N)c1.F[B-](F)(F)F, the mass density ([2]; 288.15 K) was 787.33 ± 1.6 kg/m3, the mass density ([2]; 293.15 K) was 781.96 ± 1.6 kg/m3 and the mass density ([2]; 298.15 K) was 776.61 ± 1.6 kg/m3. The mass density ([2]; 303.15 K) was 771.18 ± 1.6 kg/m3, the mass density ([2]; 308.15 K) was 765.73 ± 1.5 kg/m3 and the mass density ([2]; 313.15 K) was 760.25 ± 1.5 kg/m3. It also gave a mass density ([2]; 318.15 K) of 754.72 ± 1.5 kg/m3 and a mass density ([2]; 323.15 K) of 749.16 ± 1.5 kg/m3.

Compound `C[n+]1ccn(CCCC#N)c1.F[B-](F)(F)F` [1-butyronitrile-3-methylimidazolium tetrafluoroborate] has a surface tension liquid-gas ([1]; 288.15 K) of 49.1 ± 0.3 mN/m, an electrical conductivity ([1]; 288.15 K) of 0.058 ± 0.056 S/m and a viscosity ([1]; 288.15 K) of 590.6 ± 74 mPa·s. For the same compound, the mass density ([1]; 288.15 K) was 1316.07 ± 2.7 kg/m3, the surface tension liquid-gas ([1]; 293.15 K) was 48.7 ± 0.3 mN/m and the electrical conductivity ([1]; 293.15 K) was 0.085 ± 0.068 S/m. For the same compound, the viscosity ([1]; 293.15 K) was 417.9 ± 50 mPa·s, the mass density ([1]; 293.15 K) was 1312.33 ± 2.7 kg/m3 and the surface tension liquid-gas ([1]; 298.15 K) was 48.4 ± 0.3 mN/m. It also gave an electrical conductivity ([1]; 298.15 K) of 0.123 ± 0.082 S/m, a viscosity ([1]; 298.15 K) of 302.6 ± 35 mPa·s and a mass density ([1]; 298.15 K) of 1308.61 ± 2.7 kg/m3. It also gave a surface tension liquid-gas ([1]; 303.15 K) of 48.1 ± 0.3 mN/m, an electrical conductivity ([1]; 303.15 K) of 0.171 ± 0.097 S/m and a viscosity ([1]; 303.15 K) of 223.3 ± 25 mPa·s. For the same compound, the mass density ([1]; 303.15 K) was 1304.81 ± 2.6 kg/m3, the surface tension liquid-gas ([1]; 308.15 K) was 47.7 ± 0.3 mN/m and the electrical conductivity ([1]; 308.15 K) was 0.231 ± 0.11 S/m. It also gave a viscosity ([1]; 308.15 K) of 169.9 ± 18 mPa·s, a mass density ([1]; 308.15 K) of 1301.05 ± 2.6 kg/m3 and a surface tension liquid-gas ([1]; 313.15 K) of 47.4 ± 0.3 mN/m. It also gave an electrical conductivity ([1]; 313.15 K) of 0.305 ± 0.13 S/m, a viscosity ([1]; 313.15 K) of 128.7 ± 13 mPa·s and a mass density ([1]; 313.15 K) of 1297.32 ± 2.6 kg/m3. The surface tension liquid-gas ([1]; 318.15 K) was 47.1 ± 0.3 mN/m, the electrical conductivity ([1]; 318.15 K) was 0.393 ± 0.15 S/m and the viscosity ([1]; 318.15 K) was 100.6 ± 10 mPa·s. For the same compound, the mass density ([1]; 318.15 K) was 1293.59 ± 2.6 kg/m3, the surface tension liquid-gas ([1]; 323.15 K) was 46.8 ± 0.3 mN/m and the electrical conductivity ([1]; 323.15 K) was 0.498 ± 0.17 S/m. For the same compound, the viscosity ([1]; 323.15 K) was 79.82 ± 8.1 mPa·s and the mass density ([1]; 323.15 K) was 1289.86 ± 2.6 kg/m3.
